Where “and” joins values, the source holds several entries; their conditions need not be identical. Equal values may be shown once. Read-outs that look alike come from different tables or passages of the source.
Tests used:
P-gp = P-gp (Homo sapiens, UniProt P08183); assay: Transporter inhibition assay, P-gp; type: biochemical
OATP1B3 = biological target: T1, OATP1B3 (Homo sapiens, UniProt Q9NPD5); assay: Transporter inhibition assay, OATP1B3; type: cell-based; conditions: cell line (HEK293 or MDCKII) stably expressing OATP1B3
T1 sequence (Q9NPD5 1-702): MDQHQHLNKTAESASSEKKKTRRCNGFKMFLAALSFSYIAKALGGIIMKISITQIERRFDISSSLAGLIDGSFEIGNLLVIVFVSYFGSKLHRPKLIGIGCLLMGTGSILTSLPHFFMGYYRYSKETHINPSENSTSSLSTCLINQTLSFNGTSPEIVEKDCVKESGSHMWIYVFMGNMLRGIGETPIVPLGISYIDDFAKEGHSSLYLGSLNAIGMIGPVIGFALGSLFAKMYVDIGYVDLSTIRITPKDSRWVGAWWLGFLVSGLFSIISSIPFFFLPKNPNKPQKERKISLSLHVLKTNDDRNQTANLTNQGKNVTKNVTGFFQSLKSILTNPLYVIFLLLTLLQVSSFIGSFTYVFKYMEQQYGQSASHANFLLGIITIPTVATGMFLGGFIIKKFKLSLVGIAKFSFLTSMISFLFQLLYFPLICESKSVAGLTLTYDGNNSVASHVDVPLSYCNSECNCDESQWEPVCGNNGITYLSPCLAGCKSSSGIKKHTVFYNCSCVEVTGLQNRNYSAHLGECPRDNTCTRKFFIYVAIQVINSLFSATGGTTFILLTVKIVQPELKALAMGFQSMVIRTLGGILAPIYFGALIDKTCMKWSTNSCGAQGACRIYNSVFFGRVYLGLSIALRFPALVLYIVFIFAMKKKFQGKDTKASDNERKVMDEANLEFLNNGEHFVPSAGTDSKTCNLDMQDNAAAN

BSEP = BSEP (Homo sapiens, UniProt O95342); assay: Transporter inhibition assay, BSEP
Chain of BSEP (O95342 whole entry): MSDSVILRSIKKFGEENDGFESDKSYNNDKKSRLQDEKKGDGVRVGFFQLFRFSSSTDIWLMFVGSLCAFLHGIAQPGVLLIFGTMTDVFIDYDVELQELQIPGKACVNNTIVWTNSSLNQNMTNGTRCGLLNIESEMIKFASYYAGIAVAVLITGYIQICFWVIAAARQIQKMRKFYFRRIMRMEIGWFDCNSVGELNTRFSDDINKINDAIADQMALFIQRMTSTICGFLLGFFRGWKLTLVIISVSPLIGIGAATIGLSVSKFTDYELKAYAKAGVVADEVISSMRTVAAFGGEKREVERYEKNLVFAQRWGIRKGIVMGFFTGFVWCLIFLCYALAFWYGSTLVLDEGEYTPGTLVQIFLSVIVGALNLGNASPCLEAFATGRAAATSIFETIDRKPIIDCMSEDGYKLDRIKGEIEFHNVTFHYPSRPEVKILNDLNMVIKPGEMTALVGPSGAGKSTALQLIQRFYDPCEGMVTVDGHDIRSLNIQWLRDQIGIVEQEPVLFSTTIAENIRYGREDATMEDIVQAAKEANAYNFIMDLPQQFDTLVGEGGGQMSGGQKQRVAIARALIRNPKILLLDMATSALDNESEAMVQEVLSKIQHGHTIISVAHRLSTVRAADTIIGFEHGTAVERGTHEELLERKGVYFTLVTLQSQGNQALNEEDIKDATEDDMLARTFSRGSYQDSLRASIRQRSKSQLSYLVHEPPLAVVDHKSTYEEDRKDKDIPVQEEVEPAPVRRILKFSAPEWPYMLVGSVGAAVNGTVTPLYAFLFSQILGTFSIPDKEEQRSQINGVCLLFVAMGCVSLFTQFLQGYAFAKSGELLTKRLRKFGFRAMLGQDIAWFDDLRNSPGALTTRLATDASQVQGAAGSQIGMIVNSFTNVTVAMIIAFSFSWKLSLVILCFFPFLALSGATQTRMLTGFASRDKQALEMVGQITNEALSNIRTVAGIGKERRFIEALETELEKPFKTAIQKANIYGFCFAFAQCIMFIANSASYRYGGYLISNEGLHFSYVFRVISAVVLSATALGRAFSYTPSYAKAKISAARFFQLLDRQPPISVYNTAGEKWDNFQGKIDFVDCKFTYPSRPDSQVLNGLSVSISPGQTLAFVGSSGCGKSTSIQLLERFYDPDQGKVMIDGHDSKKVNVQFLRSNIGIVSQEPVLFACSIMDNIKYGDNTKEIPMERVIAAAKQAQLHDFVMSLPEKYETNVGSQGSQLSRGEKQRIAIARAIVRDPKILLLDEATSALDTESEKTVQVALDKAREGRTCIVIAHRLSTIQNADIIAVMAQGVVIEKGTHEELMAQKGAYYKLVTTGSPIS

NTCP = biological target: T2, NTCP (Homo sapiens, UniProt Q14973); assay: Transporter inhibition assay, NTCP; type: cell-based; conditions: alkaloids screened at 10 and 100 μM
T2 sequence (Q14973 1-349): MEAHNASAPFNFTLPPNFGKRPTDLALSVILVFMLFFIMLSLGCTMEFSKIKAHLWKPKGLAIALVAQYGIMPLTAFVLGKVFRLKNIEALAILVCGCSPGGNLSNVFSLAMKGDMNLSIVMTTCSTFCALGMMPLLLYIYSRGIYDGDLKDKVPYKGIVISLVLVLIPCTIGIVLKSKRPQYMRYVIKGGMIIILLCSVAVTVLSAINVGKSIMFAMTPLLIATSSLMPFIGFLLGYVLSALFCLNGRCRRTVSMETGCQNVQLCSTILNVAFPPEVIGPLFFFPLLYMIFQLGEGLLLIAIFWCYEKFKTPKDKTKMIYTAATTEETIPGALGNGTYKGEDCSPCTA

BCRP = biological target: T3, BCRP (Homo sapiens, UniProt Q9UNQ0); assay: Vesicular transport inhibition assay, BCRP
T3 sequence (Q9UNQ0 1-655): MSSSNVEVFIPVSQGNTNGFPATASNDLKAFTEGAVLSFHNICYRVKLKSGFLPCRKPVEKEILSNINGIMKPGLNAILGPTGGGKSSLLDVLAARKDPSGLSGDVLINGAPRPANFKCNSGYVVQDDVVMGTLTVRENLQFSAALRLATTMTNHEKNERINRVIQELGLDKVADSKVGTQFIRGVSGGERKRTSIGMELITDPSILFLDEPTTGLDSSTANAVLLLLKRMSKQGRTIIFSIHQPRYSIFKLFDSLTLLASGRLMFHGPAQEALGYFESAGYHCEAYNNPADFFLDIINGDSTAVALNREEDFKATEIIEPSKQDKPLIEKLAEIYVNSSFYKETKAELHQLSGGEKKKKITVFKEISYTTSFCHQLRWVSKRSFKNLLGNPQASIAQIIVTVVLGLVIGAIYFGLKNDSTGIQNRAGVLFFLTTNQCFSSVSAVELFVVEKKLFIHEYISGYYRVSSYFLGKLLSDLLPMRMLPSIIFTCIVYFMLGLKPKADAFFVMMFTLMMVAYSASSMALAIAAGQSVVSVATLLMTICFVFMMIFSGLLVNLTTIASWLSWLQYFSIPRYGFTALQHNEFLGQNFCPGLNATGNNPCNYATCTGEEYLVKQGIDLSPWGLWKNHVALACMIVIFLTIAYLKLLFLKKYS

MRP2 = MRP2 (Homo sapiens, UniProt Q92887); assay: Transporter inhibition assay, MRP2
Chain of MRP2 (Q92887 whole entry): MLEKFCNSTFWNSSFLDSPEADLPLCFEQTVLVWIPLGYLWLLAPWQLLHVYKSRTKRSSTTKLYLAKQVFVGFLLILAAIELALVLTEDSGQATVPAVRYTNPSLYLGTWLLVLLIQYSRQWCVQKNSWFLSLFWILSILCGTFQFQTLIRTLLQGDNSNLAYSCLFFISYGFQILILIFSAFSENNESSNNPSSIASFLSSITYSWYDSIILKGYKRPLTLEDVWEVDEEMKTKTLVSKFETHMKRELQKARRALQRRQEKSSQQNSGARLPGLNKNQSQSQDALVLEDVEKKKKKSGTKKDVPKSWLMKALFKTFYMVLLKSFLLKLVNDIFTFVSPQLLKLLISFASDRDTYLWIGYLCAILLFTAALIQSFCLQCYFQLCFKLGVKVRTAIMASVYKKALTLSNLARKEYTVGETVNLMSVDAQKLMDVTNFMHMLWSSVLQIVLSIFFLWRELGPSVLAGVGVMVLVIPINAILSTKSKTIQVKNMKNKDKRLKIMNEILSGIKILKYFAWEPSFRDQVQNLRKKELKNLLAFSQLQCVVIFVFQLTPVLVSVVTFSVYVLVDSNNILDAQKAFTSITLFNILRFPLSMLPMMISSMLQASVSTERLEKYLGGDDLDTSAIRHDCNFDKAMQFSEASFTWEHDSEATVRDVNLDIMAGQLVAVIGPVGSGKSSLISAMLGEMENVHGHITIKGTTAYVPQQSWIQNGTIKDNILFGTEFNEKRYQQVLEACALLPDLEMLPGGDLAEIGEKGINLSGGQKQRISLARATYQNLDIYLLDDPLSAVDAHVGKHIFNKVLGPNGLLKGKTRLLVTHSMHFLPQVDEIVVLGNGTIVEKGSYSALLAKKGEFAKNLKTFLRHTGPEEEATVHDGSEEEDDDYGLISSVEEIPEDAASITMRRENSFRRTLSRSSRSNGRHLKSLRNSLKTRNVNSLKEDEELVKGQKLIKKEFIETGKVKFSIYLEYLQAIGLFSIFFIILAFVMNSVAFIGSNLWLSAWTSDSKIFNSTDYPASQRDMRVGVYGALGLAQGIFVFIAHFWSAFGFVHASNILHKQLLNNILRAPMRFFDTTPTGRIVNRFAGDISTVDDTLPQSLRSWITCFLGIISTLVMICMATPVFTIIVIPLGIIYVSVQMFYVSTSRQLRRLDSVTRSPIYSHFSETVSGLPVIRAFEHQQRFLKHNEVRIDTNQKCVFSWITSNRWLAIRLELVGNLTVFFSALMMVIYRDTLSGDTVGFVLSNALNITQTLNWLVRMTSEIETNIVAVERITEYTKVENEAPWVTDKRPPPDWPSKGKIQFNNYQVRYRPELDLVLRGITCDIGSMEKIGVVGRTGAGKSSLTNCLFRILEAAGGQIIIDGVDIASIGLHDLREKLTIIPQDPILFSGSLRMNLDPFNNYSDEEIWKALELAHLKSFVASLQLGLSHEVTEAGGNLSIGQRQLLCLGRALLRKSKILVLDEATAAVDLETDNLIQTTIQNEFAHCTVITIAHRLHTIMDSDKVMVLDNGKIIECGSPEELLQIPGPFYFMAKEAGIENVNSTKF

MATE1 = biological target: T4, MATE1 (Homo sapiens, UniProt Q96FL8); assay: Transporter inhibition assay, MATE1
T4 sequence (Q96FL8 1-570): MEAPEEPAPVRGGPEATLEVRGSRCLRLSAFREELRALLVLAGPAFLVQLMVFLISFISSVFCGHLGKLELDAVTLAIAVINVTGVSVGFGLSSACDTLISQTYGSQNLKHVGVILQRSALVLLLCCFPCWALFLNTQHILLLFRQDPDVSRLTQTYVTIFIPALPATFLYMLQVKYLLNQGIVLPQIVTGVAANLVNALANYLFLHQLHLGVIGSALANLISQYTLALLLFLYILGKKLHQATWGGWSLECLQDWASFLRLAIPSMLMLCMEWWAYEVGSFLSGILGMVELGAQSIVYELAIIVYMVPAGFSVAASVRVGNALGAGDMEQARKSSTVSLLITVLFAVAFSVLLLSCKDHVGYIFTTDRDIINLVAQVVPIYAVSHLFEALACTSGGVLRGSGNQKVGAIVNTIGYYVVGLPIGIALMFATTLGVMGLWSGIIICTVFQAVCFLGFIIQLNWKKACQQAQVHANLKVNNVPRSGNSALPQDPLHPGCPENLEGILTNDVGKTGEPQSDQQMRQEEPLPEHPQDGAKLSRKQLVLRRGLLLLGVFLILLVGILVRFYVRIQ

Chain of P-gp (P08183 whole entry): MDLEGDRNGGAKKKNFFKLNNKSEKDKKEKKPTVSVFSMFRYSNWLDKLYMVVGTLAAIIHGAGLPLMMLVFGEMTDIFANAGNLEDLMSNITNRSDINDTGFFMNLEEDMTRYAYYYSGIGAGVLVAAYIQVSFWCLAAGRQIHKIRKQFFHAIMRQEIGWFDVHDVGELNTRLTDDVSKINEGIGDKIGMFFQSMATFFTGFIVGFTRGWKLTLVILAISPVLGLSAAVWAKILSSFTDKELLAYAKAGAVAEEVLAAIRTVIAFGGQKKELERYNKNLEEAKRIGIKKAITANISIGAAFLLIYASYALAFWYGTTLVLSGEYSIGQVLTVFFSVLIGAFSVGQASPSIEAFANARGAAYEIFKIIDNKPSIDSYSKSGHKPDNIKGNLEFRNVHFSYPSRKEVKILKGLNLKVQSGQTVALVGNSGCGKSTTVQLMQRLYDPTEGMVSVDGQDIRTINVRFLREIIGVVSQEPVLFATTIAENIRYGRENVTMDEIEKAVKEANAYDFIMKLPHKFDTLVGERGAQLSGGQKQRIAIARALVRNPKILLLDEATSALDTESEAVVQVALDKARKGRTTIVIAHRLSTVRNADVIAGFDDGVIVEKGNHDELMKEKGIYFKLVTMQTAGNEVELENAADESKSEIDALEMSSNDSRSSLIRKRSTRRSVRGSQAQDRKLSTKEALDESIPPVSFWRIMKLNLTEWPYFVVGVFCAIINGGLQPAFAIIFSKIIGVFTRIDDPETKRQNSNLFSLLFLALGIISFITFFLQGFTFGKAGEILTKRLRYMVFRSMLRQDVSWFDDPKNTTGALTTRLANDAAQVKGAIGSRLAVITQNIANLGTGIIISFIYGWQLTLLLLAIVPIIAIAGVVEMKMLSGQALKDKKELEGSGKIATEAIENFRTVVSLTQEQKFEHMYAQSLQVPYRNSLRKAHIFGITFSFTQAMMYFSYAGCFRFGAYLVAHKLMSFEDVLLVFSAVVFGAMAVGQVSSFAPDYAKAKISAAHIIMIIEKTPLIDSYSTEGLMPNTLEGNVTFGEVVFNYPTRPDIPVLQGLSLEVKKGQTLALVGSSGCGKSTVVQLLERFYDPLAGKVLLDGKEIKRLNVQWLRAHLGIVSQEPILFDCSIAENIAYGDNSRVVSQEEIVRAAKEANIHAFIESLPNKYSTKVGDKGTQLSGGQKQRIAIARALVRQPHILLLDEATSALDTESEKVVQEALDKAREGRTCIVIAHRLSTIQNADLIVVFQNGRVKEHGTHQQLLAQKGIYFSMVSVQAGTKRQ

| IC50 (BCRP) [µM] | IC50 (MATE1; IC50, MATE1, isolated alkaloids, mean [95% CI], three technical replicates) | Structure (SMILES) | inhibition at 100 μM (P-gp) [%] | inhibition at 100 μM (OATP1B3) [%] | inhibition at 100 μM (BSEP) [%] | inhibition at the highest concentration tested (NTCP) | inhibition at 100 μM (BCRP) [%] | inhibition at 100 μM (MRP2) [%] | IC50 (MATE1) [µM] | inhibition at the highest concentration tested (BSEP; BSEP, alkaloids screened at 10 and 100 μM) | IC50 (BCRP; BCRP, isolated alkaloids, mean [95% CI], three technical replicates) [µM] | inhibition at the highest concentration tested (MRP2; MRP2, alkaloids screened at 10 and 100 μM) | IC50 (MATE1; MATE1, isolated alkaloids, mean [95% CI], three technical replicates) [µM] |
| --- | --- | --- | --- | --- | --- | --- | --- | --- | --- | --- | --- | --- | --- |
| – | – | CN1CCc2cc3c(cc2C1O)OCO3 (stereo not shown) [Hydrastinine, hydrastinine chloride monohydrate] | < 20 | < 20 | < 20 | -- (inhibition not observed) | < 20 | < 20 | 82 | – | – | – | – |
| – | – | COc1ccc2c(c1OC)C(=O)O[C@@H]2[C@H]1c2cc3c(cc2CCN1C)OCO3 [(−)-β-Hydrastine, (1R,9S)-(−)-β-Hydrastine] | – | – | – | -- (inhibition not observed) | – | – | – | -- (inhibition not observed) | 86.2 | -- (inhibition not observed) | 110 |
| 180 | < 1 µM and 0.73 µM | COc1ccc2cc3[n+](cc2c1OC)CCc1cc2c(cc1-3)OCO2 [Berberine, berberine chloride] | < 20 | < 20 | < 20 | -- (inhibition not observed) | – | < 20 | – | – | – | – | – |

Source: paper PMC8058163 (Clinical pharmacology and therapeutics, 2020)
